# Patent publication US20260272925A1, “CDK2 MODULATORS, COMPOSITIONS, AND METHODS OF USE THEREOF” (Type6 Therapeutics, Inc., priority 2023, published 2026)
# Target: T1, Cdk2(2-298) (Homo sapiens, UniProt P24941)
# T1 construct: Biotinylated N-terminal avi-tagged Cdk2(2-298) or Cdk1(1-297) was immobilized
# Assay: Surface Plasmon Resonance (SPR), Biacore 8K, compound interaction with immobilized kinase
# Format: binding
# Settings: biotinylated N-terminal avi-tagged protein on Chip SA, single-cycle kinetics (SCK, "S") mode, 1% DMSO, pH 7.5, read-out: Activity rating* (KD)
# Protocol: Surface Plasmon Resonance (SPR) Method Description
# Compound interaction was profiled using a Biacore 8K instrument (Cytiva). Biotinylated N-terminal avi-tagged Cdk2(2-298) or Cdk1(1-297) was immobilized on a series S sensor Chip SA at a capture level between 2500 RU and 3000 RU (Cdk2) or 7000 RU (Cdk1) in buffer (25 mM HEPES, 150 mM NaCl, 0.05% Tween20, pH 7.5). A compound dilution plate (8 concentrations, 3-fold dilution) in DMSO was prepared (100× assay concentration). From this plate, compound DMSO stock solution was transferred into buffer, yielding a final DMSO concentration of 1% in assay. The remaining buffer was supplemented with 1% DMSO. Compounds were injected in a series of increasing concentrations in multi-cycle kinetics (MCK, “M”) or single-cycle kinetics (SCK, “S”) mode at a flow rate of 30 μl/min for 120 sec and dissociation was profiled for 180 sec (MCK) or 1800 sec (SCK). Data were analysed using Biacore Insight Evaluation Software (Cytiva).
row,Kd,SMILES
1,11 to 100 nM,"N[C@H]1CC[C@H](Nc2nccc(-c3cccnc3Oc3ccc(NS(=O)(=O)c4ccccc4Cl)cc3)n2)CC1 [Compound 411, N-[4-[(1r,4r)[3-[2-[(4-Aminocyclohexyl)amino]pyrimidin-4-yl]-2-pyridyl]oxy]phenyl]2-chlorobenzenesulfonamide]"
2,≤ 10 nM,"O=S(=O)(Nc1ccc(Oc2ncsc2-c2ccnc(N[C@H]3CCCNC3)n2)c(F)c1)c1ccccc1Cl [Compound 391, N-[3-Fluoro-4-[[5-[2-[[(3S)-3-piperidinyl]amino]pyrimidin-4-yl]-4-thiazolyl]oxy]phenyl]2-chlorobenzenesulfonamide]"
3,11 to 100 nM,"N[C@H]1CC[C@H](Nc2nccc(-c3cccnc3Oc3ccc(NS(=O)(=O)c4cccc5ccccc45)cc3F)n2)CC1 [Compound 415, N-[4-[(1r,4r)[3-[2-[(4-Aminocyclohexyl)amino]pyrimidin-4-yl]pyrid-2-yl]oxy]-3-fluorophenyl]naphthalene-1-sulfonamide]"
4,100 to 1000 nM,"N[C@H]1CC[C@H](Nc2nccc(-c3cccnc3Oc3ccc(NS(=O)(=O)c4ccc5ccccc5c4)cc3F)n2)CC1 [Compound 417, N-[4-[(1r,4r)[3-[2-[(4-Aminocyclohexyl)amino]pyrimidin-4-yl]pyrid-2-yl]oxy]-3-fluorophenyl]naphthalene-2-sulfonamide]"
5,≤ 10 nM,"N[C@H]1CC[C@H](Nc2nccc(-c3cccnc3Oc3ccc(NS(=O)(=O)c4ccccc4Cl)cc3F)n2)CC1 [Compound 410, N-[4-[(1r,4r)[3-[2-[(4-Aminocyclohexyl)amino]pyrimidin-4-yl]pyrid-2-yl]oxy]-3-fluorophenyl]2-chlorobenzenesulfonamide]"
6,11 to 100 nM,"O=S(=O)(Nc1ccc(Oc2nccnc2-c2ccnc(N[C@H]3CCCNC3)n2)c(F)c1)c1ccccc1Cl [Compound 390, N-[3-Fluoro-4-[[3-[2-[[(3S)-3-piperidinyl]amino]pyrimidin-4-yl]-2-pyrazinyl]oxy]phenyl]2-chlorobenzenesulfonamide]"
7,11 to 100 nM,"O=S(=O)(Nc1ccc(Oc2ncccc2-c2ccnc(N[C@H]3CCCNC3)n2)cc1)c1ccccc1Cl [Compound 412, N—((S)-4-((3-(2-(Piperidin-3-ylamino)pyrimidin-4-yl)pyridin-2-yl)oxy)phenyl) 2-chlorobenzenesulfonamide]"
8,≤ 10 nM,"O=S(=O)(Nc1ccc(Oc2ncccc2-c2ccnc(N[C@H]3CCCNC3)n2)c(F)c1)c1ccccc1Cl [Compound 413, N—((S)-4-((3-(2-(piperidin-3-ylamino)pyrimidin-4-yl)pyridin-2-yl)oxy)-3-fluorophenyl) 2-chlorobenzenesulfonamide]"
9,≤ 10 nM,"N[C@H]1CC[C@H](Nc2nccc(-c3scnc3Oc3ccc(NS(=O)(=O)c4ccccc4Cl)cc3F)n2)CC1 [Compound 403, N-[4-[(1r,4r)[5-[2-[(4-Aminocyclohexyl)amino]pyrimidin-4-yl]thiazol-4-yl]oxy]-3-fluorophenyl]2-chlorobenzenesulfonamide]"
10,11 to 100 nM,"N[C@H]1CC[C@H](Nc2nccc(-c3cccnc3Oc3cc(Cl)c(NS(=O)(=O)c4cccc5ccccc45)cc3F)n2)CC1 [Compound 416, N-[4-[(1r,4r)[3-[2-[(4-Aminocyclohexyl)amino]pyrimidin-4-yl]pyrid-2-yl]oxy]-6-chloro-3-fluorophenyl]naphthalene-1-sulfonamide]"
11,100 to 1000 nM,"N[C@H]1CC[C@H](Nc2nccc(-c3nccnc3Oc3ccc(NS(=O)(=O)c4ccccc4Cl)cc3F)n2)CC1 [Compound 402, N-[4-[(1r,4r)[3-[2-[(4-Aminocyclohexyl)amino]pyrimidin-4-yl]pyrazin-2-yl]oxy]-3-fluorophenyl]2-chlorobenzenesulfonamide]"
12,≤ 10 nM,"N[C@H]1CC[C@H](Nc2nccc(-c3cccnc3Oc3cc(Cl)c(NS(=O)(=O)c4ccccc4Cl)cc3F)n2)CC1 [Compound 414, N-[4-[(1r,4r)[3-[2-[(4-Aminocyclohexyl)amino]pyrimidin-4-yl]pyrid-2-yl]oxy]-6-chloro-3-fluorophenyl]2-chlorobenzenesulfonamide]"
